Test results from ChEMBL document CHEMBL5104093, “A comprehensive review on β-lapachone: Mechanisms, structural modifications, and therapeutic potentials” (Eur J Med Chem, 2021).
≈ marks a conversion by molar mass, not a printed value.

How the values were obtained:
[1] = Cytotoxicity against monkey LLC-MK2 cells assessed as reduction in cell viability incubated for 96 hrs by trypan blue assay; type: toxicity, cell-based, Macaca mulatta; conditions: rhesus monkey, read-out: LC50
PC-3 = assay: Cytotoxicity against human PC-3 cells assessed as reduction in cell viability incubated for 72 hrs by MTT assay; type: functional, cell-based; conditions: PC-3, 72 h
HL-60 [2] = assay: Cytotoxicity against human HL-60 cells assessed as reduction in cell viability incubated for 72 hrs by MTT assay; type: functional, cell-based; conditions: HL-60, 72 h
SF-295 [3] = assay: Cytotoxicity against human SF-295 cells assessed as reduction in cell viability incubated for 72 hrs by MTT assay; type: functional, cell-based; conditions: SF-295, 72 h
B16 = assay: Cytotoxicity against mouse B16 cells assessed as reduction in cell viability incubated for 72 hrs by MTT assay; type: functional, cell-based; conditions: B16, 72 h
MDA-MB-435 = assay: Cytotoxicity against human MDA-MB-435 cells assessed as reduction in cell viability incubated for 72 hrs by MTT assay; type: functional, cell-based; conditions: MDA-MB-435, 72 h
HCT-8 = assay: Cytotoxicity against human HCT-8 cells assessed as reduction in cell viability incubated for 72 hrs by MTT assay; type: functional, cell-based; conditions: HCT-8, 72 h
NCI-H292 = assay: Cytotoxicity against human NCI-H292 cells assessed as reduction in cell viability incubated for 72 hrs by MTT assay; type: functional, cell-based; conditions: NCI-H292, 72 h
HEp-2 = assay: Cytotoxicity against human HEp-2 cells assessed as reduction in cell viability incubated for 72 hrs by MTT assay; type: functional, cell-based; conditions: HEp-2, 72 h
Trypanosoma cruzi [4] = assay: Antitrypanosomal activity against bloodstream form of Trypanosoma cruzi Y trypomastigotes infected in albino mouse assessed as reduction in viable parasite in blood by Neubauer counting chamber method; type: functional, organism-based
SF-295 [5] = assay: Cytotoxicity against human SF-295 cells assessed as reduction in cell viability by MTT assay; type: functional, cell-based
OVCAR-8 = assay: Cytotoxicity against human OVCAR-8 cells assessed as reduction in cell viability by MTT assay; type: functional, cell-based
HCT-116 = assay: Cytotoxicity against human HCT-116 cells assessed as reduction in cell viability by MTT assay; type: functional, cell-based
Trypanosoma cruzi [6] = assay: Antitrypanosomal activity against bloodstream form of Trypanosoma cruzi trypomastigotes infected in Swiss mouse assessed as reduction in viable parasite in blood incubated for 24 hrs by Neubauer counting chamber method; type: functional, organism-based
Staphylococcus aureus = assay: Antibacterial activity against Staphylococcus aureus 2065 MA assessed as diameter of bacterial growth inhibition by Mueller-Hinton broth based assay; type: functional
HL-60 [7] = assay: Cytotoxicity against human HL-60 cells assessed as reduction in cell viability by MTT assay; type: functional, cell-based
MCF7 = assay: Cytotoxicity against human MCF7 cells assessed as reduction in cell viability incubated for 72 hrs by MTT assay; type: functional, cell-based; conditions: MCF7, 72 h
Trypanosoma cruzi [8] = assay: Antitrypanosomal activity against bloodstream form of Trypanosoma cruzi Y trypomastigotes infected in albino mouse assessed as reduction in viable parasite in blood incubated for 24 hrs by Neubauer counting chamber method; type: functional, organism-based
[9] = test system: Mycobacterium tuberculosis; assay: Antimycobacterial activity against Mycobacterium tuberculosis H37Rv ATCC 27294 assessed as bacterial growth inhibition incubated for 7 days by resazurin dye based microtiter assay; type: functional; conditions: ATCC 27294, 168 h, time 7 day
K562 = assay: Cytotoxicity against human K562 cells assessed as reduction in cell viability incubated for 72 hrs by MTT assay; type: functional, cell-based; conditions: K562, 72 h
Jurkat = assay: Cytotoxicity against human Jurkat cells assessed as reduction in cell viability incubated for 72 hrs by MTT assay; type: functional, cell-based
MOLT-4 = assay: Cytotoxicity against human MOLT-4 cells assessed as reduction in cell viability incubated for 72 hrs by MTT assay; type: functional, cell-based; conditions: MOLT-4, 72 h
KB = assay: Cytotoxicity against human KB cells assessed as reduction in cell viability incubated for 48 hrs by MTT assay; type: functional, cell-based
HepG2 = assay: Cytotoxicity against human HepG2 cells assessed as reduction in cell viability incubated for 48 hrs by MTT assay; type: functional, cell-based; conditions: HepG2, 48 h
HeLa = assay: Cytotoxicity against human HeLa cells assessed as reduction in cell viability incubated for 48 hrs by MTT assay; type: functional, cell-based
Trypanosoma cruzi [10] = assay: Antitrypanosomal activity against bloodstream form of Trypanosoma cruzi Y trypomastigotes infected in Swiss Webster mouse assessed as reduction in viable parasite in blood incubated for 24 hrs by Neubauer counting chamber based light microscopic analysis; type: functional, organism-based

## CCCCCCCCCCC1CC2=C(O1)c1ccccc1C(=O)C2=O (stereo unspecified)
[1]
  CC50 at 96 h: 1700 µM

## CC(C)(O)c1cn(C2C3=C(OC2(C)C)c2ccccc2C(=O)C3=O)nn1 (stereo unspecified)
PC-3
  IC50: 2.8 µM
HL-60 [2]
  IC50: 2.8 µM
SF-295 [3]
  IC50: 2.8 µM
B16
  IC50: 2.8 µM
MDA-MB-435
  IC50: 2.8 µM
HCT-8
  IC50: 2.8 µM

## CC1(C)OC2=C(C(=O)C(=O)c3ccccc32)C1CO (stereo unspecified)
NCI-H292
  IC50: 0.46 µM
HEp-2
  IC50: 0.46 µM

## O=C1C(=O)c2c(O)cccc2C2=C1CCC(c1ccccc1)O2 (stereo unspecified)
HL-60 [2]
  IC50: 0.11 µM
SF-295 [3]
  IC50: 0.11 µM
MDA-MB-435
  IC50: 0.11 µM
HCT-8
  IC50: 0.11 µM

## CCCCCCCCC1CC2=C(O1)c1ccccc1C(=O)C2=O (stereo unspecified)
[1]
  CC50 at 96 h: 2200 µM
Trypanosoma cruzi [4]
  IC50: 86.7 µM

## CC1(C)O[C@H]2O[C@H](COC3C4=C(OC3(C)C)c3ccccc3C(=O)C4=O)[C@@H](OCc3ccccc3)[C@H]2O1 (stereo partly specified)
SF-295 [5]
  IC50: 0.16 µM
OVCAR-8
  IC50: 0.16 µM
HCT-116
  IC50: 0.16 µM

## CC1(C)OC2=C(C(=O)C(=O)c3ccccc32)C1N=[N+]=[N-] (stereo unspecified)
PC-3
  IC50: 1.19 µM
HL-60 [2]
  IC50: 1.19 µM
SF-295 [3]
  IC50: 1.19 µM
B16
  IC50: 1.19 µM
MDA-MB-435
  IC50: 1.19 µM
HCT-8
  IC50: 1.19 µM

## CC1(C)OC2=C(C(=O)C(=O)c3ccccc32)C1n1cc(CO)nn1 (stereo unspecified)
PC-3
  IC50: 3.38 µM
HL-60 [2]
  IC50: 3.38 µM
SF-295 [3]
  IC50: 3.38 µM
B16
  IC50: 3.38 µM
MDA-MB-435
  IC50: 3.38 µM
HCT-8
  IC50: 3.38 µM

## CC1(C)CCc2c(c3ccccc3c3nc(-c4ccccc4Cl)[nH]c23)O1
Trypanosoma cruzi [6]
  IC50: 37.5 µM

## CC1(C)OC2=C(C(=O)C(=O)c3ccccc32)C1S(=O)(=O)C1CCCCC1 (stereo unspecified)
Staphylococcus aureus
  zone diameter: 8 mm

## CO[C@@H]1O[C@H](COC2C3=C(OC2(C)C)c2ccccc2C(=O)C3=O)[C@H]2OC(C)(C)O[C@@H]12 (stereo partly specified)
SF-295 [5]
  IC50: 0.16 µM
HL-60 [7]
  IC50: 0.16 µM
OVCAR-8
  IC50: 0.16 µM
HCT-116
  IC50: 0.16 µM

## O=C1C(=O)c2c(O)cccc2C2=C1CCC(c1ccc(Cl)cc1)O2 (stereo unspecified)
HL-60 [2]
  IC50: 0.17 µM
SF-295 [3]
  IC50: 0.17 µM
MDA-MB-435
  IC50: 0.15 µM
HCT-8
  IC50: 0.17 µM

## Cc1ccc(-c2cc(NC3C4=C(OC3(C)C)c3ccccc3C(=O)C4=O)n(-c3ccccc3)n2)cc1 (stereo unspecified)
SF-295 [5]
  IC50: 1.05 µM
HL-60 [7]
  IC50: 0.34 µM
OVCAR-8
  IC50: 0.99 µM
HCT-116
  IC50: 0.72 µM

## O=C1C(=O)c2c(O)cccc2C2=C1CCC(c1ccc(F)cc1)O2 (stereo unspecified)
HL-60 [2]
  IC50: 0.21 µM
SF-295 [3]
  IC50: 0.21 µM
MDA-MB-435
  IC50: 0.15 µM
HCT-8
  IC50: 0.21 µM

## CC(=O)OCC1CC2=C(OC1(C)C)c1ccccc1C(=O)C2=O (stereo unspecified)
MCF7
  IC50: 2.73 µM
NCI-H292
  IC50: 2.26 µM
HEp-2
  IC50: 2.26 µM

## O=C1C(=O)c2c(O)cccc2C2=C1CCC(c1ccc(Br)cc1)O2 (stereo unspecified)
HL-60 [2]
  IC50: 0.15 µM
SF-295 [3]
  IC50: 0.15 µM
MDA-MB-435
  IC50: 0.15 µM
HCT-8
  IC50: 0.15 µM

## COc1ccc(-c2nc3c(o2)c2c(c4ccccc43)OC(C)(C)CC2)cc1
Trypanosoma cruzi [8]
  IC50: 3500 µM

## O=C1C(=O)c2ccccc2C2=C1CC(Cn1cc(COC3CCCCO3)nn1)O2 (stereo unspecified)
Trypanosoma cruzi [4]
  IC50: 52.9 µM

## CC1(C)OC2=C(CC1CO)C(=O)C(=O)c1ccccc12 (stereo unspecified)
MCF7
  IC50: 5.51 µM
NCI-H292
  IC50: 5.51 µM
HEp-2
  IC50: 5.51 µM

## CC1(C)Oc2c(c3nc4ccccc4nc3c3ccccc23)C1N=[N+]=[N-] (stereo unspecified)
[9]
  MIC: 25 µg/mL (≈ 73.2 µM)

## CC1CCC2C(C1)c1c(c3ccccc3c3nc4ccccc4nc13)OC2(C)C (stereo unspecified)
[9]
  MIC: < 6.25 µg/mL

## O=C1C(=O)c2ccccc2C2=C1CC(CI)O2 (stereo unspecified)
K562
  IC50: 1.38 µM
Jurkat
  IC50: 1.38 µM
MOLT-4
  IC50: 1.38 µM

## CCOC(=O)C1=C2C3=C(OC(C)(C)CC3)c3ccccc3C2(O)CC1=O (stereo unspecified)
Trypanosoma cruzi [8]
  IC50: 56.1 µM

## CC1COC2=C(C1)C(=O)C(=O)c1ccccc12 (stereo unspecified)
KB
  IC50: 0.92 µM
HepG2
  IC50: 0.92 µM
HeLa
  IC50: 0.92 µM

## Cc1cccc(S(=O)(=O)C2C3=C(OC2(C)C)c2ccccc2C(=O)C3=O)c1 (stereo unspecified)
Staphylococcus aureus
  zone diameter: 7 mm

## CC(=O)OC[C@H]1O[C@@H](OCc2cn(C3C4=C(OC3(C)C)c3ccccc3C(=O)C4=O)nn2)[C@H](OC(C)=O)[C@@H](OC(C)=O)[C@H]1OC(C)=O (stereo partly specified)
Trypanosoma cruzi [4]
  IC50: 209 µM

## O=C1C(=O)c2ccccc2C2=C1CC(O)CO2 (stereo unspecified)
KB
  IC50: 7.61 µM
HepG2
  IC50: 7.61 µM
HeLa
  IC50: 7.61 µM

## CC1(C)Oc2c(c3nc4ccccc4nc3c3ccccc23)C=C1Br
[9]
  MIC: < 6.25 µg/mL

## O=C(Cn1ccnc1[N+](=O)[O-])NCc1ccccc1 [BENZNIDAZOLE]
[1]
  CC50 at 96 h: 324 µM
Trypanosoma cruzi [10]
  IC50: 104 µM

## CC1(C)CC2=C(O1)c1ccccc1C(=O)C2=O [NOR-BETA-LAPACHONE]
Jurkat
  IC50: 1.34 µM

## CC1(C)COC2=C(C1)C(=O)C(=O)c1ccccc12 [RHINACANTHONE]
KB
  IC50: 6.9 µM
HepG2
  IC50: 6.9 µM
HeLa
  IC50: 6.9 µM
